Measured values published in ChEMBL document CHEMBL1129226, “Synthesis of conformationally restricted progestational 13-ethylsteroids” (1997).

System: Oryctolagus cuniculus
Assay: In vivo activity using McPhail test after oral dose
Format: functional

SMILES	ED2 [mg/kg]
C#C[C@]1(O)C=CC2C3CCC4=CC(=O)CCC4C3CCC21CC (stereo partly drawn)	0.008
C#C[C@]1(O)CCC2C3CCC4=CC(=O)CCC4C3[C@H]3CC(=C)[C@]21C3 (stereo partly drawn)	1
C#C[C@]1(O)CCC2C3CCC4=CC(=O)CCC4C3[C@H]3C[C@H](C)[C@]21C3 (stereo partly drawn)	~0.032
C#C[C@]1(O)CCC2C3CCC4=CC(=O)CCC4C3CCC21CC (stereo partly drawn)	0.04
C1=C2CC3(CCC2C2C(C1)C1CCC4(OCCO4)[C@@]14C[C@@H]2C[C@]41CO1)OCCO3 (stereo partly drawn)	>4
C#C[C@]1(O)CCC2C3CCC4=CC(=O)CCC4C3C(=C)CC21CC (stereo partly drawn)	0.015
C#C[C@]1(O)CCC2C3CCC4=CC(=O)CCC4C3[C@H]3C[C@@H](C)[C@]21C3 (stereo partly drawn)	0.125
C#C[C@]1(O)CC[C@H]2[C@@H]3CCC4=CC(=O)CC[C@@H]4[C@H]3CC[C@@]21C [NORETHINDRONE]	~0.5
